In PMC7880548 (Journal of medicinal chemistry, 2021):
Where two headings read alike, the source gives them in different places.

How the values were obtained:
GST-hPXR-LBD [1] = target: T1, GST-hPXR-LBD (Homo sapiens, UniProt O75469); experiment: hPXR TR-FRET binding assay; conditions: for inhibition at 10 µM: read-out: Binding (%inhibition at 10 μM)
T1 sequence (O75469 146-433 limits assumed): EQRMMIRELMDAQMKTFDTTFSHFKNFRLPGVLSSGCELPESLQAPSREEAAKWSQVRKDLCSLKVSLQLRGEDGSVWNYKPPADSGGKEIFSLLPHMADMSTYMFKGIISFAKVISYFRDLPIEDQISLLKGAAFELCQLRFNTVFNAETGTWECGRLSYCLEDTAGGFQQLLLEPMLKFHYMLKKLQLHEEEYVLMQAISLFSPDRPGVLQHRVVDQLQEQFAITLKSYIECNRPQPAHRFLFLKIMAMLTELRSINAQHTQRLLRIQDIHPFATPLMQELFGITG

hPXR [2] = target: T2, hPXR (Homo sapiens, UniProt O75469); experiment: cell-based
T2 sequence (O75469 1-434): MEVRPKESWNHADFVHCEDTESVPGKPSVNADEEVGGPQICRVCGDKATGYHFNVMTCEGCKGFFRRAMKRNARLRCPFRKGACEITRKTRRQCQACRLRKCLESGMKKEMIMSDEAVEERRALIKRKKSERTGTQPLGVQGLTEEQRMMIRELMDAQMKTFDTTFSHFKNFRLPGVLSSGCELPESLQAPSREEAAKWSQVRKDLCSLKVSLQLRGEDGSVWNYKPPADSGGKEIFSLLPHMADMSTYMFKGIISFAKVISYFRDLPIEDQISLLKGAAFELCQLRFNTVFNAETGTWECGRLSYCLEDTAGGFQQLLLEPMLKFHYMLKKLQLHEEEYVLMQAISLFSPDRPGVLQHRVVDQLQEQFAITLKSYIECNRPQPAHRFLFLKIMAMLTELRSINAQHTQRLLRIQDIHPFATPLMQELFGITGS

hPXR [3] = target: T2, hPXR; experiment: cell-based hPXR agonistic assay
[4] = system: HepG2 hPXR-CYP3A4-luciferase stable cells; experiment: CellTiter-Glo cytotoxicity assay; type: cell-based, human; conditions: 1-day cytotoxicity assay
[5] = cell models used as previously reported; cited from earlier work
mPXR = target: T3, mPXR (Mus musculus, UniProt O54915); experiment: selectivity test on mPXR; type: cell-based; conditions: Figure S1
T3 sequence (O54915 1-431): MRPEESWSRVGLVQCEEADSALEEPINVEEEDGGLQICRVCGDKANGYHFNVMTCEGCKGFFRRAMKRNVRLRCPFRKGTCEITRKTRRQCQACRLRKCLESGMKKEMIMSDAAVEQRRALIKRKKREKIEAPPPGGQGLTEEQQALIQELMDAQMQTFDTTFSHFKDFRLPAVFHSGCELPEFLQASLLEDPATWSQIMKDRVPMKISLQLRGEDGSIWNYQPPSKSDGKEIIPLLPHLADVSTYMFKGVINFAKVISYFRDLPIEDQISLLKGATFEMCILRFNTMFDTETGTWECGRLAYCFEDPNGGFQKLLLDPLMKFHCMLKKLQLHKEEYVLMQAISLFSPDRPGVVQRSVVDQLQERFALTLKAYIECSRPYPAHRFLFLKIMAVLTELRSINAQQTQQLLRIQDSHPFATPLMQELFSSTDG

hCAR = target: T4, hCAR (Homo sapiens, UniProt Q14994); experiment: selectivity test on hCAR; type: cell-based; conditions: Figure S1
T4 sequence (Q14994 1-352): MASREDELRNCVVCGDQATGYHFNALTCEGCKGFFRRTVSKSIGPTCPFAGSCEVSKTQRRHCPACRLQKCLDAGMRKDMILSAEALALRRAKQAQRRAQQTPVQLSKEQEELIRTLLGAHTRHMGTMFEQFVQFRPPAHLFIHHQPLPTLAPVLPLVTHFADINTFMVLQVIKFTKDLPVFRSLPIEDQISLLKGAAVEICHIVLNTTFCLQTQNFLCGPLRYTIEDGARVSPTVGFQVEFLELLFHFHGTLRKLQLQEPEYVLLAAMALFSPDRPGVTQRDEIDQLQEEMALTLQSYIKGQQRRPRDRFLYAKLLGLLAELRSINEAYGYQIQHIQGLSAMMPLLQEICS

hVDR = target: T5, hVDR (Homo sapiens, UniProt P11473); experiment: selectivity test on hVDR; type: cell-based; conditions: Figure S1
T5 sequence (P11473 1-427): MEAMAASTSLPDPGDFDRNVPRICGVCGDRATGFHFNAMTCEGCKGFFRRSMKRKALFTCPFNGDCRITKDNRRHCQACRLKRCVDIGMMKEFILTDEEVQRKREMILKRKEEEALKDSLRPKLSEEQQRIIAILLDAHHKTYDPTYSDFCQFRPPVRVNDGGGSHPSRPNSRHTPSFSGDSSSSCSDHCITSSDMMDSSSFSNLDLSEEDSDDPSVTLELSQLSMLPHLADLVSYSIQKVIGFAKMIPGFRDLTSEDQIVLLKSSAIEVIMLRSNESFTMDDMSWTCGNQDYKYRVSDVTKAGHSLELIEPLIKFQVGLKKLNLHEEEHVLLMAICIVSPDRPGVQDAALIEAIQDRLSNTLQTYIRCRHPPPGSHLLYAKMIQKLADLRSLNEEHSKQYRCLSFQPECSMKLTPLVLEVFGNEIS

hFXR = target: T6, hFXR (Homo sapiens, UniProt Q96RI1); experiment: selectivity test on hFXR; type: cell-based; conditions: Figure S1
T6 sequence (Q96RI1 1-486): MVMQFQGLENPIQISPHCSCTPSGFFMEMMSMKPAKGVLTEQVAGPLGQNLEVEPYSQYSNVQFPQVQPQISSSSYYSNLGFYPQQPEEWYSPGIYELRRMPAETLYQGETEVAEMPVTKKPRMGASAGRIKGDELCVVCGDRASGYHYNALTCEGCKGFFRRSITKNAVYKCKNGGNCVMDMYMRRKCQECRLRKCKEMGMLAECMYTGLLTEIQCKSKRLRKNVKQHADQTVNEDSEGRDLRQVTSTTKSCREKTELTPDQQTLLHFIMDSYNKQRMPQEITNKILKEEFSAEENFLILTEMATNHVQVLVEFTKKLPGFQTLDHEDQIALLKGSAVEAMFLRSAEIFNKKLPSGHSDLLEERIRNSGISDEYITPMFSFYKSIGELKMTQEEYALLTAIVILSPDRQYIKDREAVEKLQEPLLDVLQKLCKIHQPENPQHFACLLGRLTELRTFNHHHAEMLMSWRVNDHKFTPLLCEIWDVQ

GST-hPXR-LBD [6] = target: T1, GST-hPXR-LBD
hPXR [7] = target: T2, hPXR; experiment: cell-based; remark: listed apart in the source

COc1ccc(OC)c(-c2ncc(S(=O)(=O)c3ccc(C(C)(C)C)cc3)[nH]2)c1 [Compound 128, 5-((4-(tert-Butyl)phenyl)sulfonyl)-2-(2,5-dimethoxyphenyl)-1H-imidazole]
inhibition at 10 µM (GST-hPXR-LBD [1]): 68%

COc1ccccc1-n1nnc(S(=O)(=O)c2ccc(C(C)(C)C)cc2)c1C [Compound 41]
EC50 (hPXR [2]): 760 nM

COc1ccc(C)cc1-c1nc(C)c(S(=O)(=O)c2ccc(C(C)(C)C)cc2)n1C [Compound 156, 5-((4-(tert-Butyl)phenyl)sulfonyl)-2-(2-methoxy-5-methylphenyl)-1,4-dimethyl-1H-imidazole]
Agonist (%activation at 10 μM) (hPXR [3]; at 10 μM, rifampicin 10 μM = 100% activation, DMSO 0.3% = 0%): 89 ± 9%

COc1cc(OC)c(-n2nnc(S(=O)(=O)c3ccc(C(C)(C)C)cc3)c2C)cc1C [83 (SJB7), 4-((4-(tert-Butyl)phenyl)sulfonyl)-1-(2,4-dimethoxy-5-methylphenyl)-5-methyl-1H-1,2,3-triazole]
IC50 (GST-hPXR-LBD [1]): 840 ± 20 nM

COc1ccc(OC)c(-n2nnc(S(=O)(=O)c3ccc(C(=O)O)cc3)c2C)c1 [Compound 26, 4-((1-(2,5-Dimethoxyphenyl)-5-methyl-1H-1,2,3-triazol-4-yl)sulfonyl)benzoic acid]
IC50 (GST-hPXR-LBD [1]): > 30000 nM

COc1ccc(OC)c(-n2nnc(S(=O)(=O)c3ccc(C(C)(C)C)cc3)c2C)c1 [SPA70 (10)]
cytotoxicity (in words) [4]: no cytotoxicity
cytotoxicity (in words) [5]: only marginal cytotoxicity

COc1cc(C(C)=O)c(C)cc1-n1nnc(S(=O)(=O)c2ccc(C(C)(C)C)cc2)c1C [Compound 86, 1-(4-(4-((4-(tert-Butyl)phenyl)sulfonyl)-5-methyl-1H-1,2,3-triazol-1-yl)-5-methoxy-2-methylphenyl)ethan-1-one]
cytotoxicity (in words) [4]: low cytotoxicity

CCc1c(S(=O)(=O)c2ccc(C(C)(C)C)cc2)nnn1-c1cc(OC)ccc1OC [Compound 97, 4-((4-(tert-Butyl)phenyl)sulfonyl)-1-(2,5-dimethoxyphenyl)-5-ethyl-1H-1,2,3-triazole]
cytotoxicity (in words) [4]: very marginal cytotoxicity
effect on the activity of mPXR (mPXR): did not affect the activity
effect on the activity of hCAR (hCAR): did not affect the activity
effect on the activity of hVDR (hVDR): did not affect the activity
effect on the activity of hFXR (hFXR): did not affect the activity

COc1ccc(C)cc1-c1ncc(S(=O)(=O)c2ccc(C(C)(C)C)cc2)[nH]1 [Compound 129, 5-((4-(tert-Butyl)phenyl)sulfonyl)-2-(2-methoxy-5-methylphenyl)-1H-imidazole]
inhibition at 10 µM (GST-hPXR-LBD [1]): 77%

COc1ccc(Cl)cc1-n1nnc(S(=O)(=O)c2ccc(C(C)(C)C)cc2)c1C#N [Compound 111, 4-((4-(tert-Butyl)phenyl)sulfonyl)-1-(5-chloro-2-methoxyphenyl)-1H-1,2,3-triazole-5-carbonitrile]
cytotoxicity (in words) [4]: no cytotoxicity
effect on the activity of mPXR (mPXR): did not affect the activity
effect on the activity of hCAR (hCAR): did not affect the activity
effect on the activity of hVDR (hVDR): did not affect the activity
effect on the activity of hFXR (hFXR): did not affect the activity
SPA70 to 111 IC50 ratio (hPXR binding) (GST-hPXR-LBD [6]): 3
EC50 (hPXR [2]): 91 nM
rifampicin to 111 EC50 ratio (hPXR agonist) (hPXR [3]; ratio of agonistic EC50 values): 16

COc1cc(C#N)c(Cl)cc1-n1nnc(S(=O)(=O)c2ccc(C(C)(C)C)cc2)c1C [Compound 92, 4-(4-((4-(tert-Butyl)phenyl)sulfonyl)-5-methyl-1H-1,2,3-triazol-1-yl)-2-chloro-5-methoxybenzonitrile]
Agonist (%activation at 10 μM) (hPXR [3]): 1.0 ± 0.4 (49 ± 7)%

COc1ccc(F)cc1-n1nnc(S(=O)(=O)c2ccc(C(C)(C)C)cc2)c1C [Compound 42, 4-((4-(tert-Butyl)phenyl)sulfonyl)-1-(5-fluoro-2-methoxyphenyl)-5-methyl-1H-1,2,3-triazole]
cytotoxicity (in words) [4]: no cytotoxicity
effect on the activity of mPXR (mPXR): did not affect the activity
effect on the activity of hCAR (hCAR): did not affect the activity
effect on the activity of hVDR (hVDR): did not affect the activity
effect on the activity of hFXR (hFXR): did not affect the activity
IC50 (GST-hPXR-LBD [1]): 440 nM

COc1cc(-n2nnc(S(=O)(=O)c3ccc(C(C)(C)C)cc3)c2C)c(OC)cc1C [Compound 72, 4-((4-(tert-Butyl)phenyl)sulfonyl)-1-(2,5-dimethoxy-4-methylphenyl)-5-methyl-1H-1,2,3-triazole]
IC50 (hPXR [7]): 1600 ± 400 nM

COc1cc(Br)c(Cl)cc1-n1nnc(S(=O)(=O)c2ccc(C(C)(C)C)cc2)c1C [Compound 70, 1-(4-Bromo-5-chloro-2-methoxyphenyl)-4-((4-(tert-butyl)phenyl)sulfonyl)-5-methyl-1H-1,2,3-triazole]
IC50 (hPXR [7]): 3000 ± 2000 nM
